From article PMC11088877, “AMP-activated protein kinase can be allosterically activated by ADP but AMP remains the key activating ligand” (Biochemical Journal, 2024)
Values joined by “and” are separate entries in the source; they are usually repeats but may differ in a detail not shown here. Equal values may be shown once. Read-outs that look alike come from different tables or passages of the source.

How the values were obtained:
[1] = target: T1, GST-tagged human α2 kinase domain (Homo sapiens, UniProt P54646); assay: Inhibition of GST:α2-kinase domain fusion by AMP or ADP; assay type: biochemical; details: for Activation / IC50: α2 kinase domain
T1 construct: Human GST-tagged α2 kinase domain (1–310); made in house
Text: To confirm that the inhibition of kinase activity by ADP at high concentrations was due to competition with ATP at the catalytic site on the α subunit, we repeated the assays using a glutathione-S-transferase- (GST-) tagged human α2 kinase domain that had been phosphorylated by LKB1. […] These IC50 values were similar to those obtained with the intact heterotrimers from rat liver (Supplementary Table S1).
Figure 3. Inhibition of GST:α2-kinase domain fusion by AMP or ADP. The kinase domain (phosphorylated on Thr172 by the LKB1:STRADα:MO25α complex) was incubated with various concentrations of AMP or ADP as in Figure 1 using [ATP] at 0.2 (A), 1.0 (B) or 5.0 mM (C) and keeping [Mg^2+] in a constant excess of 4.8 mM above [ATP] [19]. Results (mean ± SD, n = 2) were fitted to the equation: Y = Basal-(Basal × X)/(IC50 + X) where Y is the kinase activity, X is the concentration of AMP or ADP, and IC50 is the concentration of AMP or ADP causing half-maximal inhibition. Dashed vertical lines show the estimates of IC50 values, and best-fit values of all parameters used to generate the curves are listed in Supplementary Table S1.
Sources of antibodies were as described: pThr172 (AMPK-α: Cell Signaling Technologies, Danvers, MA, U.S.A., Cat# 2535), AMPK-α2 [22]. Rat liver AMPK was purified as described previously. Plasmid encoding human (His)6-tagged AMPK (α2β2γ1, bacterially expressed) generated as in [23], was a gift from AstraZeneca, Cambridge, U.K. The L129D/V130D (CBS1), V276G/L277G (CBS3) and I312G (CBS4) mutations in the α2β2γ1 complex were generated using the Quikchange II site-directed mutagenesis kit (Agilent Technologies) and confirmed by DNA sequencing. Human GST-tagged α2 kinase domain (1–310), LKB1:STRAD-α:MO25-α complexes, GST-tagged CaMKK2 [26], and PPM1A (PP2Cα) were produced as described. Bacterially expressed heterotrimers were activated by phosphorylation of Thr172 by GST-tagged CaMKK2 in the presence of ATP, and CaMKK2 was subsequently removed by passage through glutathione-Sepharose. Human GST-tagged α2 kinase domain was activated in a similar manner except that human (His)6-tagged LKB1:STRAD-α:MO25-α complex was used and removed after activation via passage through a His-Trap column. Recombinant human 5′-nucleotidase, CD73, Cat # 5795-EN-01, was from R&D systems (Minneapolis, MN, U.S.A.).
AMPK assays measured the transfer of radioactivity from [γ-^33P]ATP to a peptide substrate, which was separated from unreacted ATP by binding to P81 paper. This assay was described previously except that we used [γ-^33P] rather than [γ-^32P]ATP. In some assays (specified in Figure legends) the concentration of ATP was increased from 0.2 to 1 or 5 mM ATP, with MgCl2 concentrations maintained at a constant 4.8 mM excess above the concentration of ATP [19]. Where allosteric activation by AMP or ADP was being studied, we used the SAMS peptide as substrate. For all other assays the AMARA peptide was used.

[2] = target: T2, human α2β2γ1 complex, CBS1 mutant (L129D/V130D) (Homo sapiens, UniProt P54619+P54646, L129D/V130D); assay: AMPK inactivation and Thr172 dephosphorylation by PPM1A, CBS1 mutant; assay type: biochemical; details: 300 µM nucleotide, absence of ATP
T2 construct: made in house; host or cells: Escherichia coli
Experimental: The relative roles of the three CBS sites in the other two mechanisms of activation of AMPK by AMP or ADP, i.e. promotion of Thr172 phosphorylation by LKB1, and protection against Thr172 dephosphorylation by protein phosphatases, have not been examined previously. As expected, incubation of the α2β2γ1 AMPK complex with a fixed, limiting amount of purified LKB1:STRADα:MO25α complex in the presence of 200 µM Mg.ATP^2− caused a large degree of activation (Figure 5A) and phosphorylation (Figure 5B) of AMPK (unphosphorylated α2β2γ1 complex), which were stimulated more than 2-fold by 300 µM AMP and 1.6-fold by 300 µM ADP.
Figure 6. Effects of AMP or ADP on AMPK inactivation and Thr172 dephosphorylation by PP2Cα (PPM1A). Human α2β2γ1 complexes (WT, or with L129D/V130D, V276G/L277G or I312G mutations affecting CBS1, CBS3 or CBS4 respectively), all phosphorylated on Thr172, were incubated with a fixed concentration of PP2Cα (PPM1A) in the presence or absence of AMP or ADP (both 300 µM) as described in the Materials and methods section. After the incubation, aliquots were withdrawn for (A) AMPK assay or (B) Western blots. […] For (B), due to a limit on the number of lanes that could be run on one gel, single replicates from the triplicate assays were analysed. […]

[3] = target: bacterially expressed AMPK heterotrimers (γ subunit CBS sites); details: cited from earlier work
[4] = in the presence of Mg2+ and staurosporine, read-out: estimated Kd at the CBS3 site

T1 sequence (P54646 1-310): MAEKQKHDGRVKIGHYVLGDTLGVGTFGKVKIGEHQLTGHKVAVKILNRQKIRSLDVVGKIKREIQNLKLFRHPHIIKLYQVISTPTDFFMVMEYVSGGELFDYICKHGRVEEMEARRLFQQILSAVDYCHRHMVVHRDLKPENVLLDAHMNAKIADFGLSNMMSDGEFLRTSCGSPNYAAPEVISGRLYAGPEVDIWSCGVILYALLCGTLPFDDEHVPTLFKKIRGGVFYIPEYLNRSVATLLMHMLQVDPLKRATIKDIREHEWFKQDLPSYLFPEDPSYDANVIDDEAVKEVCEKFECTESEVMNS
T2 sequence (P54619 whole entry L129D/V130D): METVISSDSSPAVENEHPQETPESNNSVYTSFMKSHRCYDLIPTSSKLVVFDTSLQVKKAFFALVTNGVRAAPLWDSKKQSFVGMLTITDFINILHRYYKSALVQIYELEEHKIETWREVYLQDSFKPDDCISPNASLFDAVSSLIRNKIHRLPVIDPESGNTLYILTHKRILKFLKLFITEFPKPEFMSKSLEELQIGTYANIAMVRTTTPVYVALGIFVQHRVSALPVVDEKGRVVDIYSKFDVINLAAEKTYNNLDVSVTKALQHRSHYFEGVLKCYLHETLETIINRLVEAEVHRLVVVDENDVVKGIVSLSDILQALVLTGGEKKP
T2 sequence (P54646 whole entry): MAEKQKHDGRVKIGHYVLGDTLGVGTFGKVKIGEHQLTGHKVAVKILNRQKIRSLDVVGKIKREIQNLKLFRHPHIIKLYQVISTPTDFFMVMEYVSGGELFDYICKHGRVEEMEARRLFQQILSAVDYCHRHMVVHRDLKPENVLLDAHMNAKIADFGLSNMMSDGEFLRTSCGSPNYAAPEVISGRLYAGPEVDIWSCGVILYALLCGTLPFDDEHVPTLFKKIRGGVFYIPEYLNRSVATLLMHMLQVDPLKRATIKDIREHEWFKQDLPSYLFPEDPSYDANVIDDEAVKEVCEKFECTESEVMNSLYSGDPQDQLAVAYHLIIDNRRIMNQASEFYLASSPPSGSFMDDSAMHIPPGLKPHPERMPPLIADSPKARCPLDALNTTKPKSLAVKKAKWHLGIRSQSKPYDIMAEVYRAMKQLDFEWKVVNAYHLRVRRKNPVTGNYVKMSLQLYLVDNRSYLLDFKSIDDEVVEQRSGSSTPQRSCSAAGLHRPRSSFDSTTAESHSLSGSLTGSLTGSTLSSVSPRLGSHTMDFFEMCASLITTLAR
T2 sequence (O43741 whole entry partner): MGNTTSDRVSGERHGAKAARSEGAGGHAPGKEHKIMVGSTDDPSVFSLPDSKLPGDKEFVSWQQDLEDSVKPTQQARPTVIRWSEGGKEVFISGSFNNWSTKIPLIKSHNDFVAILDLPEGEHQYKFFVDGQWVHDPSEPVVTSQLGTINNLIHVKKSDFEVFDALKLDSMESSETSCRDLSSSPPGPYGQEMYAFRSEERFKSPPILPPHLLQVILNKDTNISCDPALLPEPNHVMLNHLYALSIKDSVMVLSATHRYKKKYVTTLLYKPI

Nc1ncnc2c1ncn2[C@@H]1O[C@H](COP(=O)(O)O)[C@@H](O)[C@H]1O [AMP]
IC50 of AMP relative to IC50 of ADP ([1]; GST-α2 kinase domain, 0.2 to 5 mM ATP): ~3 fold | Activation ([1]; 0.2 mM ATP): none | IC50 ([1]; 0.2 mM ATP): 2200 µM | Activation ([1]; 1.0 mM ATP): none | IC50 ([1]; 1.0 mM ATP): 5400 µM | Activation ([1]; 5.0 mM ATP): none | IC50 ([1]; 5.0 mM ATP): 13000 µM and 13400 µM | protective effect of nucleotide against PPM1A in the mutant [2]: unaffected | Kd [3, 4]: 1 to 2 µM | Kd ([3]; various bacterially expressed heterotrimers, read-out: Kd, AMP-binding site of high affinity): 2 to 4 µM | Kd ([3]; various bacterially expressed heterotrimers, read-out: Kd, AMP-binding site of low affinity): 40 to 400 µM

Nc1ncnc2c1ncn2[C@@H]1O[C@H](COP(=O)(O)OP(=O)(O)O)[C@@H](O)[C@H]1O [ADP]
Activation ([1]; 0.2 mM ATP): none | IC50 ([1]; 0.2 mM ATP): 670 µM | Activation ([1]; 1.0 mM ATP): none | IC50 ([1]; 1.0 mM ATP): 1600 µM | Activation ([1]; 5.0 mM ATP): none | IC50 ([1]; 5.0 mM ATP): 3500 µM | protective effect of nucleotide against PPM1A in the mutant [2]: unaffected | Kd [3, 4]: 12 to 24 µM
